The source of these data is paper PMC9959553, “Promising Antifungal Molecules against Mucormycosis Agents Identified from Pandemic Response Box®: In Vitro and In Silico Analyses” (Journal of Fungi, 2023).

The assay deals with R. oryzae UCP1295. The assay can be described thus: Screening of the Pandemic Response Box library at 5 µM. The format is cell-based, Rhizopus oryzae. The conditions noted are these: 48 h, Table S1, mean of the four values. An outline of the steps: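 Compounds at 5 μM in RPMI 1640 with 2% glucose and MOPS (0.165 mol/L, pH 7.2), with conidia at 2 × 10^5/mL, incubated 48 h at 37 °C in 5% CO2. Growth read by OD at 600 nm; hits defined as ≥60% inhibition. Posaconazole (5 μM) and 1% DMSO as controls.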
On to `O=C(CCCC(F)(F)F)N1CCC(c2nc(-c3nccs3)no2)CC1` [MMV1582491], for which the “% of growth inhibition, Mean” value is reported as -26.7%.

Turning to `Cc1nc(-c2ccc(C3N(C)c4ccc(F)cc4C(=O)N3c3ccccc3)s2)cs1` (stereo not shown) [MMV1582492], the “% of growth inhibition, Mean” value was -6.7%.

Take `C[C@@H](NC(=O)c1ccccc1-c1ccccc1)B(O)O` [MMV1582493]: the “% of growth inhibition, Mean” value is -37.1%.

`C[C@@H](O)[C@H](N)C(=O)NS(=O)(=O)c1cccc(-c2ccc3[nH]ncc3c2)c1.Cl.Cl` [MMV1582494]: the “% of growth inhibition, Mean” value is on record as -14.6%.

Turning to `C(=C\c1nc2ccccc2[nH]1)/c1ccc2c(c1)OCO2` [MMV1582495], the “% of growth inhibition, Mean” value is -6.2%.

For the compound `N#Cc1c(F)c(Cl)c(NCc2ccccc2)c(C#N)c1F` [MMV1582496], the “% of growth inhibition, Mean” value was -1.3%.

On to `CC(C)c1ccc(COc2cccc(-c3cc([S+](C)[O-])c(C#N)c(=O)[nH]3)c2)cc1` (stereo not shown) [MMV1582497], for which the “% of growth inhibition, Mean” value was -17.1%.

Consider `Cc1cc(Nc2ccc(F)cc2)nc(SCc2nc3ccccc3[nH]2)n1` [MMV1582498], for which the “% of growth inhibition, Mean” value is -17.0%.

For `CCC(CC)[C@H](NC(C)=O)[C@@H]1[C@H](O)[C@@H](C(=O)O)C[C@H]1NC(=N)N` [MMV1593511], the “% of growth inhibition, Mean” value is listed as 1.4%.

As to `CCCCCCCCCN1C[C@@H](O)[C@H](O)[C@@H](O)[C@@H]1CO` [MMV1593513], the “% of growth inhibition, Mean” value is recorded as -2.2%.

Turning to `CNC(=O)C1O[C@@H](n2cnc3c(NCc4cccc(I)c4)nc(Cl)nc32)[C@H](O)[C@@H]1O` (stereo partly shown) [MMV1593514], the “% of growth inhibition, Mean” value is on record as -5.2%.

For the compound `CCOC(=O)N[C@@H]1CC[C@@H]2[C@@H](C1)C[C@H]1C(=O)O[C@H](C)[C@H]1[C@H]2/C=C/c1ccc(-c2cccc(F)c2)cn1` [MMV1593515], the “% of growth inhibition, Mean” value amounted to 26.6%.

In the case of `O=C(O)[C@H]1C2CCC(CC2)[C@@H]1Nc1nc(-c2c[nH]c3ncc(F)cc23)ncc1F` [MMV1593516], the “% of growth inhibition, Mean” value is reported as -10.6%.

As for `O=C(/C=C/n1cnc(-c2cc(C(F)(F)F)cc(C(F)(F)F)c2)n1)NNc1cnccn1` [MMV1593517], the “% of growth inhibition, Mean” value was -8.5%.

In the case of `C[C@@]1(O)[C@H](O)[C@@H](CO)O[C@H]1n1ccc2c(N)ncnc21` [MMV1593519], the “% of growth inhibition, Mean” value amounted to 10.3%.

Take `[N-]=[N+]=N[C@H]1C[C@H](n2ccc(=O)[nH]c2=O)O[C@@H]1CO` [MMV1593520]: the “% of growth inhibition, Mean” value is given as 4.5%.

Regarding `CC(C)Nc1nc2cc(Cl)c(Cl)cc2n1[C@H]1O[C@@H](CO)[C@H](O)[C@@H]1O` [MMV1593521], the “% of growth inhibition, Mean” value was -13.4%.

Turning to `O=C(Nc1ccc(-c2ccccc2)cc1)C1=C(O)C(Cc2ccccc2)OC1=O` (stereo not shown) [MMV1593531], the “% of growth inhibition, Mean” value is recorded as -29.2%.

Turning to `O=C(Nc1ncc(Cc2cccc3ccccc23)s1)C1CCCCC1` [MMV1593532], the “% of growth inhibition, Mean” value is reported as -14.7%.

In the case of `C[C@H]1[C@@H](c2cccc(C(F)(F)F)c2)OC(=O)N1C(=O)NCc1cncc2ccccc12` [MMV1593533], the “% of growth inhibition, Mean” value is given as -13.8%.

Regarding `CCNC(=O)Nc1cc(-c2ccccc2)c(-c2cncc(C(=O)O)c2)cn1` [MMV1593534], the “% of growth inhibition, Mean” value is -20.0%.

Take `CCCCCCC1c2ccc(O)cc2Oc2cc(O)ccc21` [MMV1593535]: the “% of growth inhibition, Mean” value is listed as -3.0%.

As to `Fc1ccc(-c2nc(-c3c[nH]c4ccc(Br)cc34)[nH]c2-c2ccc(F)cc2)cc1` [MMV1593537], the “% of growth inhibition, Mean” value was -11.7%.

`Cl.NC1(C(=O)O)CCP(=O)(O)CC1` (stereo not shown) [MMV1593538]: the “% of growth inhibition, Mean” value worked out at 0.4%.

Take `O=[N+]([O-])c1ccc2c(CCc3c[nH]c4ccccc34)c[nH]c2c1` [MMV1593539]: the “% of growth inhibition, Mean” value is reported as -2.0%.

For the compound `COc1ccc2cc3[n+](cc2c1OCCN(CCn1cncn1)Cc1ccc(F)cc1F)CCc1cc2c(cc1-3)OCO2` [MMV1593540], the “% of growth inhibition, Mean” value is -0.6%.

For `Nc1nc(Nc2ccc3nc(-c4ccc(F)cc4)cc(N)c3c2)cc(-c2ccccc2)n1` [MMV1593541], the “% of growth inhibition, Mean” value is reported as -21.7%.

With `OCCCCn1cnc2c(O)nc(NCc3ccc(Cl)c(Cl)c3)nc21` [MMV1593542], the “% of growth inhibition, Mean” value is -14.0%.

Regarding `COc1cc(C(C(=O)NC2CCCCC2)N(C(=O)Cc2c[nH]c3ccccc23)c2ccc(C(C)C)cc2)cc(OC)c1OC` (stereo not shown) [MMV1593544], the “% of growth inhibition, Mean” value was -2.6%.

Regarding `CC1(C)C[C@H]1C(=O)N/C(=C\CCCCSC[C@@H](N)C(=O)O)C(=O)O.[Na+]` [MMV1613559], the “% of growth inhibition, Mean” value was -16.6%.

Take `NC(=O)[C@@H]1CC[C@@H]2CN1C(=O)N2OS(=O)(=O)O` [MMV1613560]: the “% of growth inhibition, Mean” value is reported as -12.6%.

Regarding `Cc1ncc([N+](=O)[O-])n1CC(O)CN1CCOCC1` (stereo not shown) [MMV1613562], the “% of growth inhibition, Mean” value was -0.4%.

In the case of `COc1cc(Cc2cnc(N)nc2N)c2c(c1OC)OC(C1CC1)C=C2` (stereo not shown) [MMV1613563], the “% of growth inhibition, Mean” value is given as -6.9%.

In the case of `C=C[C@]1(C)C[C@@H](OC(=O)CS[C@@H]2C[C@H]3CC[C@@H](C2)N3C)[C@]2(C)[C@H](C)CC[C@]3(CCC(=O)[C@H]32)[C@@H](C)[C@@H]1O` [MMV1633674], the “% of growth inhibition, Mean” value is given as -19.9%.

As to `CC(C)c1cc2c(cc1S(=O)(=O)O)[C@@]1(C)CCC[C@@](C)(C(=O)O)[C@@H]1CC2` [MMV1633675], the “% of growth inhibition, Mean” value was -25.5%.

Take `Nc1nc2c(ncn2[C@@H]2O[C@H](CO)[C@@H](O)[C@H]2F)c(=O)[nH]1` [MMV1633677]: the “% of growth inhibition, Mean” value is -10.0%.

In the case of `CC[C@@]1(O)C(=O)OCc2c1cc1n(c2=O)Cc2cc3c(CN(C)C)c(O)ccc3nc2-1.Cl` [MMV1633678], the “% of growth inhibition, Mean” value was -10.2%.

On to `CCc1ccccc1OCCN1CCCCCC1` [MMV1633962], for which the “% of growth inhibition, Mean” value was -12.2%.

Regarding `O=C(O)/C=C/C=C/c1cccc(Oc2cc(Cl)cc(Cl)c2)c1` [MMV1633963], the “% of growth inhibition, Mean” value turned out to be 12.3%.

For the compound `O=C(NCCN1CCCCC1)c1cccc(C(F)(F)F)c1` [MMV1633964], the “% of growth inhibition, Mean” value is on record as -2.0%.

`COc1c(NC(=O)[C@H]2CC[C@@H](COc3ccc([N+](=O)[O-])cc3)CC2)c(F)cc2c(=O)c(C(=O)O)cn(C3CC3)c12` [MMV1633965]: the “% of growth inhibition, Mean” value is given as -11.6%.

Regarding `Nc1nnnn1CCOc1c2[nH]c3ccc(Cl)cc3c2cc2c1[nH]c1ccc(Cl)cc12` [MMV1633966], the “% of growth inhibition, Mean” value is -30.2%.

As to `CCOC(=O)Nc1cc(NC(C)CC(C)CN(CC)CC)c2nc(-c3ccccc3)c(-c3ccccc3)nc2n1` (stereo not shown) [MMV1633967], the “% of growth inhibition, Mean” value is on record as -28.6%.

In the case of `Nc1nc(-c2ccccc2)nc2[nH]nc(Nc3ccc(C(F)(F)F)cc3)c12` [MMV1633968], the “% of growth inhibition, Mean” value turned out to be 4.3%.

On to `O=C(O)c1ccc(-c2ccc(O[C@H]3O[C@H](CO)[C@@H](O)[C@H](O)[C@@H]3O)cc2)cc1` [MMV1633970], for which the “% of growth inhibition, Mean” value was -12.3%.

As to `CCOc1noc2cc(OCCC3CCN(c4ccc(C)nn4)CC3)ccc12` [MMV1634071], the “% of growth inhibition, Mean” value was -15.0%.

Take `CCC(C)(C)c1ccc(CC(C)CN2C[C@@H](C)O[C@@H](C)C2)cc1.Cl` (stereo partly shown) [MMV1634358]: the “% of growth inhibition, Mean” value is -26.0%.

For `CN(C/C=C/C#CC(C)(C)C)Cc1cccc2ccccc12` [MMV1634359], the “% of growth inhibition, Mean” value is given as -42.5%.

Turning to `O=C1c2cccc3cccc(c23)C(=O)N1CC1CO1` (stereo not shown) [MMV1634360], the “% of growth inhibition, Mean” value is on record as -18.1%.

With `N[C@H]1CCC[C@H]1C(=O)O` [MMV1634361], the “% of growth inhibition, Mean” value is -8.8%.

As for `C[C@@H](c1nc(-c2ccc(C#N)cc2)cs1)[C@](O)(Cn1cncn1)c1ccc(F)cc1F` [MMV1634362], the “% of growth inhibition, Mean” value was -36.2%.

For `OB1OCc2cc(Cl)ccc21` [MMV1634363], the “% of growth inhibition, Mean” value is listed as -17.9%.

As for `CCc1cc(Nc2cc(=O)n(CCN3CCN(C(=O)c4ccccc4)CC3)c(=O)[nH]2)ccc1C` [MMV1634383], the “% of growth inhibition, Mean” value is -3.9%.

For the compound `CCN(CC)S(=O)(=O)c1ccc(Cl)c(C(=O)Nc2sc3c(c2C#N)CCCC3)c1` [MMV1634384], the “% of growth inhibition, Mean” value is -5.0%.

Turning to `Nc1ccc(-c2nc3cc(C(F)(F)F)ccc3n2C23CC4CC(CC(C4)C2)C3)cc1` [MMV1634385], the “% of growth inhibition, Mean” value is on record as -6.2%.

With `O[C@@](Cn1cnnn1)(c1ccc(F)cc1F)C(F)(F)c1ccc(-c2ccc(OCC(F)(F)F)cc2)cn1` [MMV1634386], the “% of growth inhibition, Mean” value is recorded as -15.2%.

For `CC(C)(C)c1ccc(OCCn2nc(C(=O)O)c3ccccc3c2=O)cc1` [MMV1634387], the “% of growth inhibition, Mean” value is -15.4%.

Turning to `CC(C)N(c1cc(-c2ccccc2)sc1C(=O)O)C(=O)[C@H]1CC[C@H](C)CC1` [MMV1634388], the “% of growth inhibition, Mean” value is -4.7%.

For `Nc1nc(C(F)(F)F)cc2c1[nH]c(=O)n2Cc1ccccc1` [MMV1634389], the “% of growth inhibition, Mean” value stood at 10.3%.

Consider `CCNC(=O)Nc1cc2c(-c3ccnc(C)c3)ccc(CNC(=O)OC)c2cn1` [MMV1634390], for which the “% of growth inhibition, Mean” value was -15.7%.

`Cn1cc(NC(=O)c2cc(NC(=O)c3ccc(/C=C/c4cnc5ccccc5c4)cc3)cn2C)cc1C(=O)NCCN1CCOCC1` [MMV1634391]: the “% of growth inhibition, Mean” value was -17.4%.

Consider `CCCCc1ccc(-c2nc(C)c(C(=O)OC)s2)cc1` [MMV1634392], for which the “% of growth inhibition, Mean” value is -3.4%.

In the case of `CC(C)(C)c1ccc(C(Cn2cccc(C(F)(F)F)c2=O)NC2Cc3ccccc3C2)cc1` (stereo not shown) [MMV1634393], the “% of growth inhibition, Mean” value was -0.4%.

With `Cc1ccc(N2CCC(CCOc3ccc(S(C)(=O)=O)cc3)CC2)nn1` [MMV1634394], the “% of growth inhibition, Mean” value came out at 3.3%.

Turning to `CCc1c(O)nc2ccc(F)cc2c1OCC1CCC1` [MMV1634395], the “% of growth inhibition, Mean” value is -20.7%.

Consider `O=C(c1nc2c(C(F)(F)F)cc(C3CC3)cn2c1Cl)N1CCN([C@H]2CC[C@H](O)CC2)C(=O)C1` [MMV1634396], for which the “% of growth inhibition, Mean” value was -11.9%.

For `COc1ccc(CNC(=O)C2CCN(C(C)c3cccc4ccccc34)CC2)cc1` (stereo not shown) [MMV1634397], the “% of growth inhibition, Mean” value is on record as -12.7%.
